Test results published in ChEMBL document CHEMBL5465560, “Selectivity Literature for EUbOPEN Chemogenomic Library” (2024).

Key:
[1] = tested on: eIF-2-alpha kinase GCN2 (Homo sapiens), Q9P2K8 [S808G]; assay: Selectivity interaction (Ambit KINOMEscan and KiNATiv profiling in Jurkat cells) EUB0000090b EIF2AK4; type: cell-based; settings: at 1 µM
[2] = target: T1, MAP kinase-activated protein kinase 5 (Homo sapiens) (UniProt Q8IW41); assay: Selectivity interaction (Ambit KINOMEscan and KiNATiv profiling in Jurkat cells) EUB0000090b MAPKAPK5; type: cell-based; settings: at 1 µM
T1 sequence (whole entry): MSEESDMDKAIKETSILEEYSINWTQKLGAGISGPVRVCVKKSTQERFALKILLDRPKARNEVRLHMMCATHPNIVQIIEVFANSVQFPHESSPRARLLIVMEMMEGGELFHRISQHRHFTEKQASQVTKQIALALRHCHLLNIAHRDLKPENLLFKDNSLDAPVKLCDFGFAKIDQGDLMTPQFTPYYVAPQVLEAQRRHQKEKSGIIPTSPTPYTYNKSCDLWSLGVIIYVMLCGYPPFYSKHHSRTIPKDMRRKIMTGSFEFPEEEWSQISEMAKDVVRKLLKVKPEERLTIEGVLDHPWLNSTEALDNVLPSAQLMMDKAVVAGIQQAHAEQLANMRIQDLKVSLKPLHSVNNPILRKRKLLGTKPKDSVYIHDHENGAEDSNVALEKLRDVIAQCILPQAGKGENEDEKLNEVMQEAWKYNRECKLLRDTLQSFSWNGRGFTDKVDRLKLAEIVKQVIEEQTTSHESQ

[3] = target: Mitogen-activated protein kinase kinase kinase 1 (Homo sapiens, UniProt Q13233); assay: Selectivity interaction (KinomeScan (DiscoverX)) EUB0000655a MAP3K1; settings: at 10 µM
Mitogen-activated protein kinase kinase kinase 1, sequence (Q13233 whole entry): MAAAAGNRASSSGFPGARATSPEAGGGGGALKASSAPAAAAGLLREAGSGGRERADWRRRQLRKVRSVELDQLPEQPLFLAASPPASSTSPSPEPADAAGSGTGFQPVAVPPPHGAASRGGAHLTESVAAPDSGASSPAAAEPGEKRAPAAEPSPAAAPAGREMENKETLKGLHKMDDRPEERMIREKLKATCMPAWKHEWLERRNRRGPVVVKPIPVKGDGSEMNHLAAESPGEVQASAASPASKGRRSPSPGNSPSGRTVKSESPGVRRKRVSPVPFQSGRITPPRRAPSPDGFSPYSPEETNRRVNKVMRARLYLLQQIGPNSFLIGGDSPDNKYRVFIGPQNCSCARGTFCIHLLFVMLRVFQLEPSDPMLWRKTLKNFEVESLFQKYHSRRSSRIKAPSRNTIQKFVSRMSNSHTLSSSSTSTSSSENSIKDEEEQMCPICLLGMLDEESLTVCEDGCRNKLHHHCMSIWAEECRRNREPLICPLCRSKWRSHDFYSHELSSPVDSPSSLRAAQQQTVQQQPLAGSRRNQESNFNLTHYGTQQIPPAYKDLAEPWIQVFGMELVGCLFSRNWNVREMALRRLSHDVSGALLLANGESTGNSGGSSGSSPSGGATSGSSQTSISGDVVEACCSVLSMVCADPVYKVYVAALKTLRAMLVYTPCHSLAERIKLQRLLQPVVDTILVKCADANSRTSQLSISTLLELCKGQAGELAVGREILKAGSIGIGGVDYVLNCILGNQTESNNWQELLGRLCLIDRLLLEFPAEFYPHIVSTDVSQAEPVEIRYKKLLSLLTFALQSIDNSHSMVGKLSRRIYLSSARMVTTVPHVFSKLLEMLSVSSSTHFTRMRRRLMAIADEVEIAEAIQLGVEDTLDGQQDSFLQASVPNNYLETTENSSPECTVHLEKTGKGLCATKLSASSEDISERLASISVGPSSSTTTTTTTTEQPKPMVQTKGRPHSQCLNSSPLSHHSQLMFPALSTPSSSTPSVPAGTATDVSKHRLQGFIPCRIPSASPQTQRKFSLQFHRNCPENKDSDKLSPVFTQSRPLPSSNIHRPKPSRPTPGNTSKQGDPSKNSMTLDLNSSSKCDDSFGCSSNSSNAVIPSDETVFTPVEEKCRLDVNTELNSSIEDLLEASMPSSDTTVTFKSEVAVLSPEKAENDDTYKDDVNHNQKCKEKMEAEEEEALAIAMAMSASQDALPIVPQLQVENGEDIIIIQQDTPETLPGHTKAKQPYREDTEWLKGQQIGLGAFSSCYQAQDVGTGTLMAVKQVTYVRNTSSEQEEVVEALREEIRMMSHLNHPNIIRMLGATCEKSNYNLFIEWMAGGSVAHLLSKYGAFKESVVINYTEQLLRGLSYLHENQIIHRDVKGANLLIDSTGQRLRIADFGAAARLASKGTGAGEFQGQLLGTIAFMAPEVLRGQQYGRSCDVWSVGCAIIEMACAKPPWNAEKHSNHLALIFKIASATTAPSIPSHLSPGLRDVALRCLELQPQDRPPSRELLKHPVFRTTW

[4] = target: Glycogen synthase kinase-3 alpha (Homo sapiens, UniProt P49840); assay: Selectivity interaction (KinomeScan (DiscoverX)) EUB0000618a GSK3A; settings: at 10 µM
[5] = target: Mitogen-activated protein kinase 10 (Homo sapiens, UniProt P53779); assay: Selectivity interaction (SelectScreen profiling (Invitrogen)) EUB0000607a MAPK10; settings: at 2 µM
[6] = target: Ephrin type-A receptor 5 (Homo sapiens) (UniProt P54756); settings: at 10 µM
[7] = target: Bone morphogenetic protein receptor type-1A (Homo sapiens, UniProt P36894); settings: at 10 µM
[8] = target: Serine/threonine-protein kinase SMG1 (Homo sapiens) (UniProt Q96Q15); assay: Selectivity interaction (ActivX KiNativ screen (kinase selectivity in THP-1 cell lysates)) EUB0000639a SMG1; type: subcellular; settings: lysate, at 5 µM
Serine/threonine-protein kinase SMG1 (Homo sapiens), sequence (Q96Q15 whole entry): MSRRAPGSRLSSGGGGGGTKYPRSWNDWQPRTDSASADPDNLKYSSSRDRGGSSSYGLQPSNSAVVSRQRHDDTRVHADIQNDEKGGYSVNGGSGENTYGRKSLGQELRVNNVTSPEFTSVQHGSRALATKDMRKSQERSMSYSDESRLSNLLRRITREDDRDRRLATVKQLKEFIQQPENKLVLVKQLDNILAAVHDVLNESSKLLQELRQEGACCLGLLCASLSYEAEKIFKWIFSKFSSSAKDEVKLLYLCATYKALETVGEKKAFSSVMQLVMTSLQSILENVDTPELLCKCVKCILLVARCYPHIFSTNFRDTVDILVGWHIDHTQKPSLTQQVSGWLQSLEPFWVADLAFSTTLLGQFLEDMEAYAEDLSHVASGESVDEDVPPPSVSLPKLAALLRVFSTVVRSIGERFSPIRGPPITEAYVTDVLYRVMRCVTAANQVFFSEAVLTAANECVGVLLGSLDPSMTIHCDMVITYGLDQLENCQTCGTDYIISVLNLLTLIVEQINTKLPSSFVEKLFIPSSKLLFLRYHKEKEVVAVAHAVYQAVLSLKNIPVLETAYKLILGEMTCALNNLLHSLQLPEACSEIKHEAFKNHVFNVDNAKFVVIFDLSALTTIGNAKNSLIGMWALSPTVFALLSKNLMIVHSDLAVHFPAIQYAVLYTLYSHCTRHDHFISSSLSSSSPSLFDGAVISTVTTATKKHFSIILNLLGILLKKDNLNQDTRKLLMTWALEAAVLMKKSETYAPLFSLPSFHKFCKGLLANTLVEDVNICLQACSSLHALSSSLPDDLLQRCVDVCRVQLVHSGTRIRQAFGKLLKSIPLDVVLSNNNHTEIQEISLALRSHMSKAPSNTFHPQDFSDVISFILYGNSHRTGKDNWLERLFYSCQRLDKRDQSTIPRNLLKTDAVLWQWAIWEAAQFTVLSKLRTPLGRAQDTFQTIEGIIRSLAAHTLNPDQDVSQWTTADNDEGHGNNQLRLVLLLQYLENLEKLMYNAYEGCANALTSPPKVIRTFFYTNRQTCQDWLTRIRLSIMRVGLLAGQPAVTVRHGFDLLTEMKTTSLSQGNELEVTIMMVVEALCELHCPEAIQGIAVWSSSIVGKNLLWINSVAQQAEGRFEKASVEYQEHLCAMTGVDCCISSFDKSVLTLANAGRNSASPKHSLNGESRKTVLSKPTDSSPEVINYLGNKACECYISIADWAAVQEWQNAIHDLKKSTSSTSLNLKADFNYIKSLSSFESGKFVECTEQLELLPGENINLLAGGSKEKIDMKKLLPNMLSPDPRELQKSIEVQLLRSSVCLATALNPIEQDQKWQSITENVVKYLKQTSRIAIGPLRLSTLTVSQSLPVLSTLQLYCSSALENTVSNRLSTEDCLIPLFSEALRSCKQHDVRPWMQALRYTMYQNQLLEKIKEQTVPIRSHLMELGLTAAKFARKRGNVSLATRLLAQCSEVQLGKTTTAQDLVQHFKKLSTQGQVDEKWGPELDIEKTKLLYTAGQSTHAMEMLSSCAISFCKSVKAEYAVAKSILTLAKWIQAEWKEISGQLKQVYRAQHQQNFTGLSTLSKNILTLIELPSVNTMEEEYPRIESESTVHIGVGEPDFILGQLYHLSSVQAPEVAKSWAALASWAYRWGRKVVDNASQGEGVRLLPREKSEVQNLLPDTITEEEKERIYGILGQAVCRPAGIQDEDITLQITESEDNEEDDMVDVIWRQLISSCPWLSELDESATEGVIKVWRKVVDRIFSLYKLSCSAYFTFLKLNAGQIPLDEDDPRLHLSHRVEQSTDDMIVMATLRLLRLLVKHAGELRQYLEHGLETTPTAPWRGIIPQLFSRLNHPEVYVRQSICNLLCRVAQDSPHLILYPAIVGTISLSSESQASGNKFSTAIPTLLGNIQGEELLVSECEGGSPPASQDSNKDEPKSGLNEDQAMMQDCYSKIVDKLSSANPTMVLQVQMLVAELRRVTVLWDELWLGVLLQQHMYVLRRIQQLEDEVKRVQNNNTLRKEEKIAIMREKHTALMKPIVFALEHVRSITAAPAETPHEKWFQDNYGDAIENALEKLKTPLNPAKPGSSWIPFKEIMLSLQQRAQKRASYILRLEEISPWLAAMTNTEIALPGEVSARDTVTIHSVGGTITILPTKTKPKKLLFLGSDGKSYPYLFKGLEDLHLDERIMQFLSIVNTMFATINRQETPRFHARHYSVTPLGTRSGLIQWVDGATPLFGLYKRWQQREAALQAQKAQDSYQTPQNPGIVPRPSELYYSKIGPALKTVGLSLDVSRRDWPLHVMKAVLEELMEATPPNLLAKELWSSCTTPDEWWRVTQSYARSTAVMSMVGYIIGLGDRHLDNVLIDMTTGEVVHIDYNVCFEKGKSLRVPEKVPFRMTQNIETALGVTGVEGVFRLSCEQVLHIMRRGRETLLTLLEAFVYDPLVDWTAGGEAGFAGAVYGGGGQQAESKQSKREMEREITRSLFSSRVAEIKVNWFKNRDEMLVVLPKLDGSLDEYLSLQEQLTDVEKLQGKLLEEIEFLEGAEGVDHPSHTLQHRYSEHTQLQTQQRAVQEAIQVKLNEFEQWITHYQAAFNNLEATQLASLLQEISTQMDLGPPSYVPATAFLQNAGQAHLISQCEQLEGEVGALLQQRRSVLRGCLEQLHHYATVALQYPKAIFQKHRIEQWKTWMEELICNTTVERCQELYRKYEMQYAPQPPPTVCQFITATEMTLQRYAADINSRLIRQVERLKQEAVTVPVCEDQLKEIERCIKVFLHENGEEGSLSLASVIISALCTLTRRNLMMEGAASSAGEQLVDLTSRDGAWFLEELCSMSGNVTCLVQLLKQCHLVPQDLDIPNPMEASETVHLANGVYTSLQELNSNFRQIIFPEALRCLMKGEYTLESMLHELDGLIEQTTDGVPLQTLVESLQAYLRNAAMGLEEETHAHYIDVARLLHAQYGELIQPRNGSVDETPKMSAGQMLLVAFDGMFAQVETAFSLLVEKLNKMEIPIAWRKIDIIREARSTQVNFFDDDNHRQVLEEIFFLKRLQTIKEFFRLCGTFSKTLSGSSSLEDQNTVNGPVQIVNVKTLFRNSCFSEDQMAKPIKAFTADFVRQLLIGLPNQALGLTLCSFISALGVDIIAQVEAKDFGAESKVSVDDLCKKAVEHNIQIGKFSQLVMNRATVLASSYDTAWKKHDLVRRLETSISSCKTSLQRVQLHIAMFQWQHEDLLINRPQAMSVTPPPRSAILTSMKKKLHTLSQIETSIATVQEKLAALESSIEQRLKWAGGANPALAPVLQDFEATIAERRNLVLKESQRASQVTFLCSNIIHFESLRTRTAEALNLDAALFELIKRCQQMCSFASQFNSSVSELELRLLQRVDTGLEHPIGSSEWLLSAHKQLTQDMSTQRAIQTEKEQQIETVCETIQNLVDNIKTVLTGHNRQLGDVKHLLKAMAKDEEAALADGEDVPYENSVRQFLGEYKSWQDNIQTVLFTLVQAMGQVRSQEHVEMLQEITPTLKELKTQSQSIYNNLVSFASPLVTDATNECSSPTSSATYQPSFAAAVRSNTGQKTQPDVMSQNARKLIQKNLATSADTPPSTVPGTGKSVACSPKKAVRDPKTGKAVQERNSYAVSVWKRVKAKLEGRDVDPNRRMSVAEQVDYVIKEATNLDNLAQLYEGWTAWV

[9] = target: Rho-associated protein kinase 2 (Homo sapiens, UniProt O75116); assay: Selectivity interaction (KinomeScan (DiscoverX)) EUB0000229b ROCK2; settings: at 10 µM
[10] = target: Serine/threonine-protein kinase 38-like (Homo sapiens) (UniProt Q9Y2H1); assay: Selectivity interaction (KinomeScan (DiscoverX)) EUB0001049a STK38L; settings: at 1 µM
[11] = target: Macrophage colony-stimulating factor 1 receptor (Homo sapiens) (UniProt P07333); assay: Selectivity interaction (KinomeScan (DiscoverX)) EUB0001049a CSF1R; settings: at 1 µM
[12] = target: T2, Serine/threonine-protein kinase 17B (Homo sapiens) (UniProt O94768); assay: Selectivity interaction (KinomeScan (DiscoverX)) EUB0001049a STK17B; settings: at 1 µM
T2 sequence (whole entry): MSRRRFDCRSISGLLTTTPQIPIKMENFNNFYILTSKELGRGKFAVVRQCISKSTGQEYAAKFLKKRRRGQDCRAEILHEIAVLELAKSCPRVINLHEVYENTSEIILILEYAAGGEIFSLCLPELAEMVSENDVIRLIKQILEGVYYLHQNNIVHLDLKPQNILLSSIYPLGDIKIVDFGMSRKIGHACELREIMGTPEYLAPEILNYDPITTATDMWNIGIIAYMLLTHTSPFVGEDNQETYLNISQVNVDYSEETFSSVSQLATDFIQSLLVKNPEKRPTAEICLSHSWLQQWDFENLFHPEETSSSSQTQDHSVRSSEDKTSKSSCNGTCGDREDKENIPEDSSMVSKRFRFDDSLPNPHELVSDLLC

[13] = target: T3, Serine/threonine-protein kinase TNNI3K (Homo sapiens) (UniProt Q59H18); assay: Selectivity interaction (KinomeScan (DiscoverX)) EUB0000666a TNNI3K; settings: at 10 µM
T3 sequence (whole entry): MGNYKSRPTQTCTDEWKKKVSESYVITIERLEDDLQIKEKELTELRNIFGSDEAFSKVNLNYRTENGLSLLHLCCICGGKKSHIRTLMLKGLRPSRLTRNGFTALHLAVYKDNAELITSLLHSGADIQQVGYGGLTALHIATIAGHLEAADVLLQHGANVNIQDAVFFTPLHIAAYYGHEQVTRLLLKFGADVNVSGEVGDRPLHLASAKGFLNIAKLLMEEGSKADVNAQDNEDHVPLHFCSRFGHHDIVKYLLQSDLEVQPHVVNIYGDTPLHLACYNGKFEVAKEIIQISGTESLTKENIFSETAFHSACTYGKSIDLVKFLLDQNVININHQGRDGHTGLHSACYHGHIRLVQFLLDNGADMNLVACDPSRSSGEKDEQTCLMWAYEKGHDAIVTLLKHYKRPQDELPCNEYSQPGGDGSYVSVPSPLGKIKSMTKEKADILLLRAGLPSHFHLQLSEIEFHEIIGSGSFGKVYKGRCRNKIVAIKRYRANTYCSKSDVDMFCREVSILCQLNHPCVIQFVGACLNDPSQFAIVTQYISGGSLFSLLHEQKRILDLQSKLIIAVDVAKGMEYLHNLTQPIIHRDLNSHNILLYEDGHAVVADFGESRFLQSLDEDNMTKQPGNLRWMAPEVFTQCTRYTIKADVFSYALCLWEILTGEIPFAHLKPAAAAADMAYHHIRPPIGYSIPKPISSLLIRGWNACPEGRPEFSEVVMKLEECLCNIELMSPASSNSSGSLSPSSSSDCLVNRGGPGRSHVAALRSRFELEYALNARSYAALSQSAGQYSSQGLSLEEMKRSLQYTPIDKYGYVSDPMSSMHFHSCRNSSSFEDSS

[14] = target: Ribosomal protein S6 kinase alpha-3 (Homo sapiens, UniProt P51812); assay: Selectivity interaction (KinomeScan (DiscoverX)) EUB0000092b RPS6KA3; settings: at 10 µM
[15] = target: Serine/threonine-protein kinase 26 (Homo sapiens, UniProt Q9P289); assay: Selectivity interaction (KinomeScan (DiscoverX)) EUB0000092b STK26; settings: at 10 µM
[16] = target: Calcium/calmodulin-dependent protein kinase kinase 1 (Homo sapiens) (UniProt Q8N5S9); assay: Selectivity interaction (LanthaScreen Eu Kinase Binding Assay) EUB0001632a CAMKK1; settings: at 10 µM

`CN(C)C/C=C/C(=O)Nc1ccc(C(=O)N2CCCC(Nc3ncc(Cl)c(-c4c[nH]c5ccccc45)n3)C2)cc1` (stereo unspecified) gave a % of control [1] of 64% and a % of control [2] of 99%.

`CN(C)CCOc1ccc(-c2nc(-c3ccncc3)c(-c3ccc4c(c3)CC/C4=N\O)[nH]2)cc1` gave a % of control [3] of 72%.

Compound `O[C@H]1CC[C@H](Nc2ncc3nc(Nc4c(F)cc(F)cc4F)n([C@H]4CCOC4)c3n2)CC1` has a % of control [4] of 90%.

For `CNC(=O)Nc1ccc(-c2nc(N3CC4CCC(C3)O4)c3cnn(C4CCC5(CC4)OCCO5)c3n2)cc1`, the % of inhibition [5] was 14%.

For `Cc1cc([C@@H](C)Nc2ccccc2C(=O)O)c2nc(N3CCOCC3)cc(=O)n2c1` [AZD-6482], the % of control [6] was 99% and the % of control [7] was 98%.

`CC[C@@H]1[C@H](F)C(=O)N[C@@H]1COc1nccc2cc(C(N)=O)c(OC)cc12` [ZIMLOVISERTIB] showed a % of inhibition [8] of -11.2%.

In the case of `COc1cc(N(C)c2ccnc3ccc(C(F)(F)F)cc23)cc(OC)c1OC`, the % binding [9] is reported as 100%.

`COc1cc(Nc2nc(C)cc(-c3cnn4nc(OC)ccc34)n2)cc(C(F)(F)F)c1` gave a % of control [10] of 100%, a % of control [11] of 100% and a % of control [12] of 81%.

`O=C(NOC[C@H](O)CO)c1ccc(F)c(F)c1Nc1ccc(I)cc1F` showed a % of control [13] of 51%.

`CCC(=O)N1CCN(c2ccc(-n3c(=O)ccc4cnc5ccc(-c6cnc7ccccc7c6)cc5c43)cc2C(F)(F)F)CC1` showed a % of control [14] of 38% and a % of control [15] of 89%.

`Cn1cc(-n2cnc3c(NCc4nc5cc(Cl)c(Cl)cc5[nH]4)nc(N4CCOCC4)nc32)cn1` showed a % of inhibition [16] of -49.1%.
